Results on eight molecules are retold here after article PMC5905120, “An innovative immunotherapeutic strategy for ovarian cancer: CLEC10A and glycomimetic peptides” (Journal for Immunotherapy of Cancer, 2018).

Series [1] has as its system ASGPR-1. The settings on record: ref [39]; cited from earlier work. The protocol: The type II C-type lectin asialoglycoprotein receptor-1 (ASGPR-1, Ashwell-Morell receptor, CLEC4H1) on hepatic cells also binds GalNAc-containing structures. ASGPR-1 has a 60-fold greater preference for GalNAc over Gal. Each healthy rat hepatocyte expresses 4 to 5 × 10^5 molecules of ASGPR-1 as binding sites for asialo-orosomucoid or 1.8 × 10^6 molecules as determined by an ASGPR-1-targeted antibody, which provides a surface concentration for the receptor of 0.8 to 1 μM. […] Corresponding values for binding of svL4 to CLEC10A and ASGPR-1 of 0.24 ± 0.04 μM and 0.21 ± 0.03 μM, respectively, were obtained. […] Asialofetuin, a multi-glycosylated pro ...

Series [2] concerns ID8 ovarian cancer in C57BL/6 mice. Nature of the series: Murine ovarian cancer model (ID8), sv6D and paclitaxel study. The format is in vivo, mouse (C57BL/6). The source says:
Mantel-Cox log-rank test, p (sv6D vs. PBS) = < 0.0001. Paclitaxel, brown; sv6D from day 45, blue; paclitaxel plus sv6D from day 100, purple; cremophor, yellow; PBS, black

The target in series [3] is T1, human CLEC10A (Homo sapiens, UniProt Q8IUN9).
T1 construct: purchased R&D Systems
T1 sequence (Q8IUN9 61-316 limits assumed): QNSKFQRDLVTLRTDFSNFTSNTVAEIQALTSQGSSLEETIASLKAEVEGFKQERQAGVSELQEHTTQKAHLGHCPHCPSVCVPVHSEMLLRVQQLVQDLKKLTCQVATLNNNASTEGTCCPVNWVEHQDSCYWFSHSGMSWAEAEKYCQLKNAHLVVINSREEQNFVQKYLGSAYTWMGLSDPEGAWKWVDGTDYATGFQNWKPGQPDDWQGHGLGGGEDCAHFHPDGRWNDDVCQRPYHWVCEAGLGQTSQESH
Briefly: Solid-phase binding to recombinant human CLEC10A. Conditions: for binding to CLEC10A: Fig. 2a, representative of 3 independent experiments. How it is done:
(§1) Solid-phase binding assays were performed with streptavidin-, protein A/G-, or Nickel-coated microtiter plates (Pierce). His-tagged or Fc-fusion recombinant receptors (R&D Systems, Minneapolis, MN) were reconstituted in PBS. Sufficient receptors were added to wells to saturate the coating. His-tagged receptors were added to each well at a 5-fold excess over the stated capacity of the Ni coating to minimize non-specific binding of the peptide. Wells were washed three times with binding buffer (25 mM Tris HCl, pH 7.4, 150 mM NaCl, 0.05% Tween-20) to remove unbound receptor and 50 μL of 2 μM biotinylated peptide in binding buffer were added and allowed to incubate for 1 h. The wells were washed four times with binding buffer and then incubated with 50 μL of 1 μg/mL streptavidin conjugated with peroxidase (Sigma-Aldrich) for 1 h. The wells were washed five times with binding buffer and 50 μL of peroxidase substrate (1-Step™ Ultra TMB, Pierce) were added. After several minutes to allow color development, the reaction was stopped with 50 μL 1 M H3PO4 and absorbance was measured at 450 nm. Bound streptavidin was quantitated by the specific activity of peroxidase (absorbance/ng protein conjugate/min) under the conditions of the assay.
(§2) Solid-phase binding assays were performed with recombinant human receptors. Three variations of the binding assay were used in this study, all of which allowed the arms of the tetravalent peptide to have full flexibility. (i) Biotinylated peptide was bound in microtiter wells coated with streptavidin and incubated with recombinant human receptors. After extensive washing, the bound receptor was measured by peroxidase conjugated to a receptor-specific antibody. (ii) The extracellular domains of receptors, which were fused with the Fc domain of immunoglobulin IgG, were bound in wells coated with protein A/G. Biotinylated peptide was incubated with the receptors and, after extensive washing, bound peptide was measured with streptavidin conjugated with peroxidase. Or (iii), recombinant receptors with a poly-His tag were bound to Nickel-coated wells and incubated with biotinylated peptide. svL4 and sv6D contain His residues (see Table 1) and can bind to the Ni coating, which was minimized by adding sufficient poly-His-tagged receptor to saturate the Ni coating.

The target of series [4] is T2, human ASGPR-1 (Homo sapiens, UniProt P07306).
T2 construct: purchased R&D Systems
T2 sequence (P07306 62-291 limits assumed): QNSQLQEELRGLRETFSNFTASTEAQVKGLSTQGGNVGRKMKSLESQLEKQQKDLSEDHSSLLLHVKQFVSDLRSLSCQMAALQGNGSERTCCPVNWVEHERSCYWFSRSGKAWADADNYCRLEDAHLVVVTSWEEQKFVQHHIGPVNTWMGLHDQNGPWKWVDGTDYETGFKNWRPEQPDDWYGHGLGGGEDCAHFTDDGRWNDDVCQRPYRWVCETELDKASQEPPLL
Briefly: Solid-phase binding to recombinant human ASGPR-1. The settings on record: for binding to ASGPR-1: Fig. 2a, representative of 3 independent experiments. The protocol: as §1, §2

Series [5] can be described thus: Antigenicity assay in mouse sera. Format: in vivo. Conditions: 1 nmole/g s.c., alternate days for 3 months; sera of 8 treated mice, Fig. 8. How it is done:
The sequence of one arm of svL4 or sv6D was conjugated to keyhole limpet hemocyanin (KLH) and injected into rabbits at two week intervals (total of 3 injections) (New England Peptide, Inc., Gardner, MA). Two weeks after the final injection, sera were prepared. Mice were injected with a peptide every other day over a period of 3 months (total ~ 45 injections), blood was then collected by cardiac puncture and sera were prepared. Rabbit serum was diluted 1:10, whereas mouse serum was diluted 1:1 or 1:5 with PBS containing 0.05% Tween-20 (PBST). Sera were incubated in microtiter wells coated with protein A/G (Pierce) for 90 min. The wells were washed three times with PBST, and then incubated with 50 μL of 1 μM biotinylated svL4 or sv6D for 1 h. The wells were washed four times with PBST, incubated 1 h with 1 μg/mL streptavidin-peroxidase conjugate, and washed four times with PBST. Peroxidase activity was assayed as above under Binding Assays.
Fig. 8 Test for antigenicity of svL4 and sv6D. Anti-sera were generated in rabbits against KLH-conjugates of the sequences of svL4 or sv6D and diluted 1:10. Mouse sera were collected after alternate-day injections of svL4 over 3 months, diluted 1:1 with PBS and added to protein-A/G-coated wells. Biotinylated svL4 or sv6D was added to wells and bound peptide was detected with a streptavidin-peroxidase conjugate. […]

For series [6], the system named is peritoneal cells of C57BL/6 mice. Briefly: Peritoneal immune cell populations by flow cytometry, C57BL/6 mice. Conditions: 1 nmole/g s.c., 5-day period, Fig. 5 (non-binding control). The format is in vivo, mouse (C57BL/6). How it is done:
Healthy C57BL/6 male mice, 10 weeks old, were injected subcutaneously with peptides on alternate days. Peritoneal cells were isolated from mice 24 h after dosing by injecting ice cold PBS (containing 3% FBS) into the peritoneal cavity, gently massaging the abdomen, and then collecting the fluid, which was transferred into K2EDTA-treated tubes for evaluation of specific biomarkers. Cells from three mice in each group were pooled, counted and divided among FACS tubes (1 × 10^6 cells per tube). Cells were washed once in PBS containing 3% FBS, then stained with 0.25 to 1 μg of fluorescently conjugated antibody per 10^6 cells in 100 μL of buffer as recommended by the manufacturer (Table 2).
Cells were incubated with the antibodies for 30 min at 4 °C in the dark. Following staining, the cells were washed two times with PBS/3% FBS and immediately analyzed with a MACSQuant flow cytometer (Miltenyi Biotech, Inc., San Diego, CA). Compensation was performed using single stain tubes for each color present in the analysis as well as an unstained control sample. Collection of flow cytometric data and analysis with FlowJo software, version 10.0.6 (FlowJo, LLC, Ashland, OR) were performed by Biomodels LLC (Watertown, MA).
To examine whether increases occurred in mature immune cells, peritoneal cells from Balb/c and C57BL/6 mice were analyzed by flow cytometry after cells were stained with the markers listed in Table 2. […] To explore this observation more extensively, svL4 or sv6D was injected into C57BL/6 mice on day 0, 2 or 4. Peritoneal cells were examined by flow cytometry 24 h after each injection. Shown in Fig. 5 are results expressed as cell counts for F4/80 CD11b CD86 (mature, active macrophages); CD11c (DCs); CD11c CD 86 (activated DCs); CD4 CD69 (activated T cells); CD8 CD69 (activated cytotoxic T cells); NK1.1 CD3^+ CD69 (activated NKT cells); NK1.1 CD3^− CD69 (activated NK cells); CD19 (B cells); and CD19 CD73 CD80 CD273 (memory B cells). The numbers of these mature, activated cells continued to increase with each injection.
Fig. 5 Expansion of peritoneal cells in C57BL/6 mice. Mice were injected subcutaneously at a dose of 1 nmole/g body weight of svL4, sv6D or svC1. Cells in each population recovered in a peritoneal lavage are expressed as cell counts (in thousands). Cells from three mice in each treatment group were pooled for analysis. The number of cells in each population was normalized to the average recovery of total cells from all groups. For each cell type, the left-hand, middle and right-hand set of bars represent samples from mice treated with svL4, sv6D or svC1, respectively. Mice were injected on days 0, 2 and 4, and cells were collected 24 h after each injection. Day 1, open bar; day 3, grey bar; day 5, black bar. Populations that express activation markers are indicated by an asterisk
Background: A flow cytometer gives signals particle by particle.

Series [7] has as its system PD-1. The settings on record: patients with ovarian cancer; ref [106], [107]; cited from earlier work. From the text:
Paclitaxel is currently used as a chemotherapeutic drug that acts by stabilizing microtubules and arresting cells in the cell cycle at the G2/M boundary. Paclitaxel is often combined with a platinum-based drug. Patients treated with these drugs experience a significant level of toxicity. […] However, because sv6D induces proliferation of immune cells, initiation of treatment should perhaps occur after the cell cycle inhibitory action of paclitaxel has dissipated. Pat ...

In series [8] the target is recombinant human CLEC10A (C-type lectin receptor family member 10A) (human) (UniProt Q8IUN9). Briefly: ELISA; solid-phase binding assay as a function of the concentration of peptide; KD from double-reciprocal plots of the binding curves; extensive wash steps.
Series [9] concerns the target recombinant human asialoglycoprotein receptor-1 (ASGPR-1) (human) (UniProt P07306). The series is described as above.
Setting [10] is: double-reciprocal plot of binding vs. peptide concentration, biotinylated peptide, binding buffer 25 mM Tris HCl pH 7.4, 150 mM NaCl, 0.05% Tween-20, 1 h, streptavidin-peroxidase 450 nm, ± S.D., 4 separate assays.

Entries after “also recorded” stand apart in the source; their conditions may differ. Bridges are numbered along the chain shown (N, C = ends). Roman numbers before positions name the chains, in order. Where no end group is shown, it is not given here. Some results are limits rather than exact numbers.

With `CC(=O)N[C@H]1C(O)O[C@H](CO)[C@H](O)[C@@H]1O` (mixture of isomers) [GalNAc, N-acetylgalactosamine], the “preference of ASGPR-1 for GalNAc over Gal” value in series [1] is reported as 60 fold.
On to `CC(=O)O[C@H]1C(=O)[C@@]2(C)[C@H]([C@H](OC(=O)c3ccccc3)[C@]3(O)C[C@H](OC(=O)[C@H](O)[C@@H](NC(=O)c4ccccc4)c4ccccc4)C(C)=C1C3(C)C)[C@]1(OC(C)=O)CO[C@@H]1C[C@@H]2O` [paclitaxel], for which the “body weight increase (ascites)” value in series [2] (aggressive disease, two weeks of treatment, sv6D 0.1 nmole/g s.c. alternate days, paclitaxel 18 μg/g i.p. days 45, 47, 49) is “had not significantly increased”. In addition, the “ρ of body weight on day 58 vs. PBS or no treatment” value in series [2] (paclitaxel 18 μg/g i.p. days 45, 47, 49, t test, Fig. 6a) was less than 0.05. Moreover, the median survival entry in series [2] (paclitaxel alone, PBS control 122 days, Fig. 6c) is recorded as “approximately 141 days”. The “ρ of body weight on day 121, paclitaxel vs. PBS” value in series [2] (t test, Fig. 6b) is less than 0.05.
Regarding “I: NQHTPRGGGSKK-NH2 / II: NQHTPRGGGSK / III: NQHTPRGGGS / IV: NQHTPRGGGS (amide I:11-IV:C, I:12-II:C, II:11-III:C) [sv6D]”, the dissociation constant (Kd) came to 150 ± 20 nM in [3] (setting [10]) and 120 ± 10 nM in series [4] (setting [10]). Also, the “antibodies that bind the peptides in mouse sera” value in [5] is listed as “negative”.
On to [(VQATQS- GGGS)2K]2K-NH2 [svC1], for which the “binding to CLEC10A” value in series [3] is reported as “near the level of blank wells; also recorded: does not bind to CLEC10A”. Also, in series [4], the “binding to ASGPR-1” value was “near the level of blank wells”. For the same molecule, in series [6], the “expansion of specific cell types” value is “did not increase significantly”.
Take [(VSNQH- GGGS)2K]2K-NH2 [svD2]: the “binding to CLEC10A” value in series [3] is given as “bound weakly”. In addition, the “binding to ASGPR-1” value in series [4] was “bound weakly”.
As for “nivolumab: antibody against the inhibitory receptor PD-1”, in series [7], the overall response rate is listed as 15%.
As for “pembroliumab: antibody against the inhibitory receptor PD-1”, the overall response rate in series [7] is on record as 15%.

B1: svL4, tetravalent peptide [(…-GGGS)2K]2K-NH2 (designed binder)
chain 1: VQATQSNQHTPRGGGS
chain 2: Lys-Lys-Lys-NH2
modifications: not fully specified; printed as [(VQATQSNQHTPR-GGGS)_2_K]_2_K-NH_2_; also: tetravalent: four arms joined by C-termini to branched tri-lysine core
Turning to B1, the values for the Kd in [8] and in [9] were 240 nM and 210 nM, respectively.

What is called Kd is the equilibrium constant for the complex coming apart.
